Measured values: patent US20250154141A1 (University of Florida Research Foundation, Incorporated, priority 2021, published 2025)
Where two headings read alike, the source gives them in different places.

Assays:
MOLT-4 = assay: Cell viability assay (MTS) in MOLT-4 cells; format: cell-based; conditions: Homo sapiens, MOLT-4
Procedure: (§1) Acute lymphoblastic leukemia cells (MOLT-4 and RS4; 11) were incubated with increasing concentrations of Bcl-xL degraders for 48 h. Cell viability was measured by tetrazolium-based MTS assay.

RS4; 11 = assay: Cell viability assay (MTS) in RS4; 11 cells; format: cell-based; set-up: Anti-Cancer Activity IC50 (48 hr) RS4; 11: scale not given here; conditions: for IC50: Homo sapiens, RS4-11
Procedure: as §1

[1] = Table 2, 48 hr, MTS, read-out: Anti-Cancer Activity IC50 (48 hr) MOLT-4
[2] = Table 2, 48 hr, MTS, read-out: Anti-Cancer Activity IC50 (48 hr) RS4, 11

SMILES	IC50 (MOLT-4; [1])	IC50 (RS4; 11; [2])	also measured
Cc1ncsc1-c1ccc([C@H](C)NC(=O)[C@@H]2C[C@@H](O)CN2C(=O)[C@@H](NC(=O)CC(=O)N2CCC(S(=O)(=O)N3CCN(C[C@]4(C)CCC(c5ccc(Cl)cc5)=C(CN5CCN(c6ccc(C(=O)NS(=O)(=O)c7ccc(N[C@H](CCN8CCCOCC8)CSc8ccccc8)c(S(=O)(=O)C(F)(F)F)c7)cc6)CC5)C4)CC3)CC2)C(C)(C)C)cc1 [Compound 100]	100 to 500 nM	20 to 100 nM	
Cc1ncsc1-c1ccc([C@H](C)NC(=O)[C@@H]2C[C@@H](O)CN2C(=O)[C@@H](NC(=O)CCCCCCC(=O)N2CCN(CCC3(C)CCC(c4ccc(Cl)cc4)=C(CN4CCN(c5ccc(C(=O)NS(=O)(=O)c6ccc(N[C@H](CCN7CCOCC7)CSc7ccccc7)c(S(=O)(=O)C(F)(F)F)c6)cc5)CC4)C3)CC2)C(C)(C)C)cc1 (stereo partly drawn) [Compound 28, (2S,4R)-1-((2S)-2-(8-(4-(2-(4′-chloro-4-methyl-6-((4-(4-(((4-(((R)-4-morpholino-1-(phenylthio)butan-2-yl)amino)-3-((trifluoromethyl)sulfonyl)phenyl)sulfonyl)carbamoyl)phenyl)piperazin-1-yl)methyl)-2,3,4,5-tetrahydro-[1,1′-biphenyl]-4-yl)ethyl)piperazin-1-yl)-8-oxooctanamido)-3,3-dimethylbutanoyl)-4-hydroxy-N—((S)-1-(4-(4-methylthiazol-5-yl)phenyl)ethyl)pyrrolidine-2-carboxamide]	100 to 500 nM	20 to 100 nM	
Cc1ncsc1-c1ccc([C@H](C)NC(=O)[C@@H]2C[C@@H](O)CN2C(=O)[C@@H](NC(=O)CC(=O)N2CCN(CC3CCN(CC4(C)CCC(c5ccc(Cl)cc5)=C(CN5CCN(c6ccc(C(=O)NS(=O)(=O)c7ccc(N[C@H](CCN8CCOCC8)CSc8ccccc8)c(S(=O)(=O)C(F)(F)F)c7)cc6)CC5)C4)CC3)CC2)C(C)(C)C)cc1 (stereo partly drawn) [Compound 17]	100 to 500 nM	20 to 100 nM	
Cc1ncsc1-c1ccc([C@H](C)NC(=O)[C@@H]2C[C@@H](O)CN2C(=O)[C@@H](NC(=O)CCCCCCC(=O)N2CCN(CC3(C)CCC(c4ccc(Cl)cc4)=C(CN4CCN(c5ccc(C(=O)NS(=O)(=O)c6ccc(N[C@H](CCO)CSc7ccccc7)c([N+](=O)[O-])c6)cc5)CC4)C3)CC2)C(C)(C)C)cc1 (stereo partly drawn) [Compound 49, (2S,4R)-1-((2S)-2-(8-(4-((4′-chloro-6-((4-(4-(((4-(((R)-4-hydroxy-1-(phenylthio)butan-2-yl)amino)-3-nitrophenyl)sulfonyl)carbamoyl)phenyl)piperazin-1-yl)methyl)-4-methyl-2,3,4,5-tetrahydro-[1,1′-biphenyl]-4-yl)methyl)piperazin-1-yl)-8-oxooctanamido)-3,3-dimethylbutanoyl)-4-hydroxy-N—((S)-1-(4-(4-methylthiazol-5-yl)phenyl)ethyl)pyrrolidine-2-carboxamide]	500 to 10000 nM	20 to 100 nM	
Cc1ncsc1-c1ccc([C@H](C)NC(=O)[C@@H]2C[C@@H](O)CN2C(=O)[C@@H](NC(=O)CCCCS(=O)(=O)N2CCN(C[C@]3(C)CCC(c4ccc(Cl)cc4)=C(CN4CCN(c5ccc(C(=O)NS(=O)(=O)c6ccc(N[C@H](CCN7CCCOCC7)CSc7ccccc7)c(S(=O)(=O)C(F)(F)F)c6)cc5)CC4)C3)CC2)C(C)(C)C)cc1 [Compound 110]			IC50 (MOLT-4; Table 2A, 48 hr, MTS, read-out: Anti-Cancer Activity IC50 (48 hr) MOLT-4): 20 to 100 nM; IC50 (RS4; 11; Table 2A, 48 hr, MTS, read-out: Anti-Cancer Activity IC50 (48 hr) RS4, 11): < 20 nM
Cc1ncsc1-c1ccc([C@H](C)NC(=O)[C@@H]2C[C@@H](O)CN2C(=O)[C@@H](NC(=O)CNC(=O)c2ccc(N3CCN(CCN(C)CC4(C)CCC(c5ccc(Cl)cc5)=C(CN5CCN(c6ccc(C(=O)NS(=O)(=O)c7ccc(N[C@H](CCN8CCOCC8)CSc8ccccc8)c(S(=O)(=O)C(F)(F)F)c7)cc6)CC5)C4)CC3)cc2)C(C)(C)C)cc1 (stereo partly drawn) [Compound 13]	100 to 500 nM	100 to 500 nM	
Cc1ncsc1-c1ccc([C@H](C)NC(=O)[C@@H]2C[C@@H](O)CN2C(=O)[C@@H](NC(=O)CCCCCCC(=O)N2CCN(C[C@]3(C)CCC(c4ccc(Cl)cc4)=C(CN4CCN(c5ccc(C(=O)NS(=O)(=O)c6ccc(N[C@H](CCN(C)CCO)CSc7ccccc7)c([N+](=O)[O-])c6)cc5)CC4)C3)CC2)C(C)(C)C)cc1 [Compound 42, (2S,4R)-1-((S)-2-(8-(4-(((R)-4′-chloro-6-((4-(4-(((4-(((R)-4-((2-hydroxyethyl)(methyl)amino)-1-(phenylthio)butan-2-yl)amino)-3-nitrophenyl)sulfonyl)carbamoyl)phenyl)piperazin-1-yl)methyl)-4-methyl-2,3,4,5-tetrahydro-[1,1′-biphenyl]-4-yl)methyl)piperazin-1-yl)-8-oxooctanamido)-3,3-dimethylbutanoyl)-4-hydroxy-N—((S)-1-(4-(4-methylthiazol-5-yl)phenyl)ethyl)pyrrolidine-2-carboxamide]	20 to 100 nM	< 20 nM	
Cc1ncsc1-c1ccc([C@H](C)NC(=O)[C@@H]2C[C@@H](O)CN2C(=O)[C@@H](NC(=O)CNC(=O)c2ccc(N3CCN(CCN(C)CC4(C)CCC(c5ccc(Cl)cc5)=C(CN5CCN(c6ccc(C(=O)NS(=O)(=O)c7ccc(N[C@H](CCN8CCOCC8)CSc8ccccc8)c(S(=O)(=O)C(F)(F)F)c7)cc6)CC5)C4)CC3)nc2)C(C)(C)C)cc1 (stereo partly drawn) [Compound 7]	100 to 500 nM	20 to 100 nM	
COCC[C@H](CSc1ccccc1)Nc1ccc(S(=O)(=O)NC(=O)c2ccc(N3CCN(CC4=C(c5ccc(Cl)cc5)CCC(C)(CN5CCN(C(=O)CCCCCCC(=O)N[C@H](C(=O)N6C[C@H](O)C[C@H]6C(=O)N[C@@H](C)c6ccc(-c7scnc7C)cc6)C(C)(C)C)CC5)C4)CC3)cc2)cc1[N+](=O)[O-] (stereo partly drawn) [Compound 50, (2S,4R)-1-((2S)-2-(8-(4-((4′-chloro-6-((4-(4-(((4-(((R)-4-methoxy-1-(phenylthio)butan-2-yl)amino)-3-nitrophenyl)sulfonyl)carbamoyl)phenyl)piperazin-1-yl)methyl)-4-methyl-2,3,4,5-tetrahydro-[1,1′-biphenyl]-4-yl)methyl)piperazin-1-yl)-8-oxooctanamido)-3,3-dimethylbutanoyl)-4-hydroxy-N—((S)-1-(4-(4-methylthiazol-5-yl)phenyl)ethyl)pyrrolidine-2-carboxamide]	500 to 10000 nM	20 to 100 nM	

The next lines start with results.

IC50 (MOLT-4; [1])	IC50 (RS4; 11; [2])	SMILES	also measured
< 20 nM	< 20 nM	Cc1ncsc1-c1ccc([C@H](C)NC(=O)[C@@H]2C[C@@H](O)CN2C(=O)[C@@H](NC(=O)CCCCCCC(=O)N2CCN(C[C@]3(C)CCC(c4ccc(Cl)cc4)=C(CN4CCN(c5ccc(C(=O)NS(=O)(=O)c6ccc(N[C@H](CCN7CCCOCC7)CSc7ccccc7)c(S(=O)(=O)C(F)(F)F)c6)cc5)CC4)C3)C[C@H]2C)C(C)(C)C)cc1 [Compound 81]	
< 20 nM	< 20 nM	Cc1ncsc1-c1ccc([C@H](C)NC(=O)[C@@H]2C[C@@H](O)CN2C(=O)[C@@H](NC(=O)CCCCCCC(=O)N2CCC(C3CCN(CC4(C)CCC(c5ccc(Cl)cc5)=C(CN5CCN(c6ccc(C(=O)NS(=O)(=O)c7ccc(N[C@H](CCN8C[C@H]9C[C@@H]8CO9)CSc8ccccc8)c(S(=O)(=O)C(F)(F)F)c7)cc6)CC5)C4)CC3)CC2)C(C)(C)C)cc1 (stereo partly drawn) [Compound 70]	
< 20 nM	< 20 nM	Cc1ncsc1-c1ccc([C@H](C)NC(=O)[C@@H]2C[C@@H](O)CN2C(=O)[C@@H](NC(=O)CN2CCC(CC(=O)N3CCN(C[C@]4(C)CCC(c5ccc(Cl)cc5)=C(CN5CCN(c6ccc(C(=O)NS(=O)(=O)c7ccc(N[C@H](CCN8CCCOCC8)CSc8ccccc8)c(S(=O)(=O)C(F)(F)F)c7)cc6)CC5)C4)CC3)CC2)C(C)(C)C)cc1 [Compound 76]	
20 to 100 nM		Cc1ncsc1-c1ccc([C@H](C)NC(=O)[C@@H]2C[C@@H](O)CN2C(=O)[C@@H](NC(=O)CCCCCCC(=O)N2CCN(CC3(C)CCC(c4ccc(Cl)cc4)=C(CN4CCN(c5ccc(C(=O)NS(=O)(=O)c6ccc(N[C@H](CCN(C)C7CC7)CSc7ccccc7)c([N+](=O)[O-])c6)cc5)CC4)C3)CC2)C(C)(C)C)cc1 (stereo partly drawn) [Compound 35, (2S,4R)-1-((2S)-2-(8-(4-((4′-chloro-6-((4-(4-(((4-(((R)-4-(cyclopropyl(methyl)amino)-1-(phenylthio)butan-2-yl)amino)-3-nitrophenyl)sulfonyl)carbamoyl)phenyl)piperazin-1-yl)methyl)-4-methyl-2,3,4,5-tetrahydro-[1,1′-biphenyl]-4-yl)methyl)piperazin-1-yl)-8-oxooctanamido)-3,3-dimethylbutanoyl)-4-hydroxy-N—((S)-1-(4-(4-methylthiazol-5-yl)phenyl)ethyl)pyrrolidine-2-carboxamide]	Anti-Cancer Activity IC50 (48 hr) RS4; 11 (RS4; 11; Table 2, 48 hr, MTS): + ++
< 20 nM	20 to 100 nM	Cc1ncsc1-c1ccc([C@H](C)NC(=O)[C@@H]2C[C@@H](O)CN2C(=O)[C@@H](NC(=O)CN2CCC(CN3CCN(CC4(C)CCC(c5ccc(Cl)cc5)=C(CN5CCN(c6ccc(C(=O)NS(=O)(=O)c7ccc(N[C@H](CCN8CCOCC8)CSc8ccccc8)c(S(=O)(=O)C(F)(F)F)c7)cc6)CC5)C4)CC3)CC2)C(C)(C)C)cc1 (stereo partly drawn) [Compound 16, (2S,4R)-1-((2S)-2-(2-(4-((4-((4′-chloro-4-methyl-6-((4-(4-(((4-(((R)-4-morpholino-1-(phenylthio)butan-2-yl)amino)-3-((trifluoromethyl)sulfonyl)phenyl)sulfonyl)carbamoyl)phenyl)piperazin-1-yl)methyl)-2,3,4,5-tetrahydro-[1,1′-biphenyl]-4-yl)methyl)piperazin-1-yl)methyl)piperidin-1-yl)acetamido)-3,3-dimethylbutanoyl)-4-hydroxy-N—((S)-1-(4-(4-methylthiazol-5-yl)phenyl)ethyl)pyrrolidine-2-carboxamide]	IC50 (MOLT-4; Table 5, 48 h, read-out: MOLT-4 48 h IC50): 12.7 nM; IC50 (RS4; 11; Table 5, 48 h, read-out: RS4 48 h IC50): 42.8 nM
